Reference: US11685726B2, “Pharmaceutical compositions of 6-(2-(2H-tetrazol-5-yl)ethyl)-6-fluorodecahydroisoquinoline-3-carboxylic acid and ester derivatives thereof” (Sea Pharmaceuticals LLC, priority 2020, dated 2023)

Legend:
[1] = In vitro stability in physiological buffers with or without fatty acid free BSA; format: physicochemical; conditions: 30 minutes at 37 degrees C
[2] = Hydrolysis by rat plasma in vitro at 37 degrees C; format: in vitro ADME
[3] = test system: NMDA receptor; experiment: Whole cell patch-clamp recording of NMDA induced currents in pyramidal neurons of rat brain prefrontal cortex slices; format: cell-based; conditions: Tested at 30 pM (so in the source); 50 μM NMDA; rat brain cortex slices
Protocol: Additionally biological activity of compounds as antagonists of AMPA receptors or NMDA receptors (also called ionotropic glutamate-gated ion channels) were conducted using ex vivo functional electrophysiological assays of pyramidal neurons in slices of rat brain prefrontal cortex. Effects of test compounds cf. reference compounds were studied by whole cell patch-clamp electrophysiology recordings of s-AMPA-induced currents or NMDA-induced currents, respectively, using rat brain slice prefrontal cortex (layer V) pyramidal neurons.
Male Sprague Dawley rats were supplied by Charles River Laboratories (Wilmington, Mass. USA) and were housed 4 per cage within a temperature (20.5-23.5° C.) and humidity (30-80%) controlled environment on a 12 hour light/dark cycle with access to food (Teklad Global Soy Protein, Cat. No. T.2920X10, Envigo, Indianapolis, Ind., USA) and water ad libitum. […]
All test compound experiments were carried out in the voltage-clamp recording configuration of the whole cell patch-clamp technique and all recordings performed at a holding potential of −60 mV. Recordings were monitored on a Dell personal computer (PC) running Axon pClamp software (Molecular Devices, Sunnyvale, Calif., USA) and digitized at 10 kHz. […]

SMILES: O=C(O)[C@@H]1C[C@H]2CC(F)(CCc3nnn[nH]3)CC[C@H]2CN1 (stereo in doubt) [Compound 2, (3S,4aS,6R,8aR)-6-fluoro-6-[2-(1H-1,2,3,4-tetrazol-5-yl)ethyl]-decahydroisoquinoline-3-carboxylic acid]
- stability in physiological buffers [1]: stable
- hydrolysis to Compound 1 by rat plasma in vitro ([2]; incubated at 37 degrees C): within minutes
- hydrolysis by rat plasma after esterase inhibitor pretreatment ([2]; plasma pretreated 37 degrees C 5 min with 10 micromolar methyl arachidonoyl fluoro phosphonate): blocked

SMILES: O=C(O)[C@@H]1C[C@H]2C[C@@](F)(CCc3nnn[nH]3)CC[C@H]2CN1 [Compound 1, (3S,4aS,6S,8aR)-6-fluoro-6-[2-(1H-1,2,3,4-tetrazol-5-yl)ethyl]-decahydroisoquinoline-3-carboxylic acid]
- % inhibition +/- SEM of NMDA induced currents in neurons [3]: 61.0 ± 6.3 (n = 3) %
